Data set [1] relates to armyworm (Spodoptera frugiperda). The data set is described as follows: Spodoptera frugiperda test (SPODFR spray treatment), Example 15. The following applies: maize leaf discs sprayed, after 7 days. Format: in vivo. As to the method:
Spodoptera frugiperda Test (SPODFR Spray Treatment)
• Solvent: 78.0 parts by weight of acetone • 1.5 parts by weight of dimethylformamide • Emulsifier: 0.5 part by weight of alkylaryl polyglycol ether
To prepare an appropriate active ingredient formulation, 1 part by weight of active ingredient is mixed with the stated amounts of solvent and emulsifier, and the concentrate is diluted with emulsifier-containing water to the desired concentration. Leaf discs from maize (Zea mays) are sprayed with an active ingredient formulation of the desired concentration and, after drying, populated with caterpillars of the armyworm (Spodoptera frugiperda).
After 7 days, the efficacy in % is determined. 100% means that all caterpillars were killed; 0% means that no caterpillars were killed.

The nature of data set [2]: logP by HPLC on reverse-phase column (EEC Directive 79/831 Annex V.A8). Format: physicochemical. Here is the method:
The logP values reported in the above Tables and Preparation Examples were determined according to EEC Directive 79/831 Annex V.A8 by HPLC (High Performance Liquid Chromatography) on a reverse-phase column (C18). Temperature 43° C.

[3] abbreviates: HPLC-MS, HPLC on reverse-phase column.
The mark [4] stands for this setting: HPLC, C18 reverse phase, 43° C., acidic range pH 2.7, calibration with alkan-2-ones.

Molecules are shown by their SMILES.

Regarding `N#Cc1ccc(NC(=O)c2ccc(/C=C/C(=O)NC(c3cccc(C(F)(F)F)c3)C(F)(F)F)cc2Cl)nc1` (racemic) [Ia-205], in data set [1] (application rate 100 g/ha), the efficacy in % was 100%. The logP result in data set [2] (HPLC-MS) is listed as “HPLC-MS: logP = 3.72; mass”.

In the case of `CC(=O)NCc1ccc(/C=C/C(=O)NC(c2cccc(C(F)(F)F)c2)C(F)(F)F)cc1Cl` (stereo not drawn) [Ia-248], the efficacy in % in data set [1] (application rate 100 g/ha) stood at 100%. Besides, the logP result in data set [2] (HPLC-MS) was “HPLC-MS: logP = 3.06; mass”.

As for `O=C(/C=C/c1ccc(C(=O)Nc2cc(Cl)ccn2)c(Cl)c1)NC(c1cccc(C(F)(F)F)c1)C(F)(F)F` (stereo not drawn) [Ia-165], in data set [1] (application rate 100 g/ha), the efficacy in % turned out to be 100%. In addition, in data set [2] (HPLC-MS), the logP entry is “HPLC-MS: logP = 4,23; mass”.

Turning to `O=C(/C=C/c1ccc(C(=O)NCc2ccccn2)cc1)NC(c1cccc(C(F)(F)F)c1)C(F)(F)F` (stereo not drawn) [Ia-7], in data set [1] (application rate 500 g/ha), the efficacy in % is 83%. For the same compound, the logP result in data set [2] (HPLC-MS) was “HPLC-MS: logP = 2.45; mass”.

Compound `N#Cc1cnn(-c2ccc(/C=C/C(=O)NC(c3cccc(C(F)(F)F)c3)C(F)(F)F)cc2Cl)c1` (racemic) [Ia-200] showed an efficacy in % in data set [1] (application rate 100 g/ha) of 100%. For the same compound, the logP entry in data set [2] (HPLC-MS) is on record as “HPLC-MS: logP = 3.83; mass”.

The compound `N#Cc1ccnc(NC(=O)c2ccc(/C=C/C(=O)NC(c3cccc(C(F)(F)F)c3)C(F)(F)F)cc2C(F)(F)F)c1` (stereo not drawn) [Ia-260] registered an efficacy in % in data set [1] (application rate 100 g/ha) of 100%. In addition, the logP entry in data set [2] (setting [3]) is listed as “HPLC-MS: logP = 3.61; mass”.

As for `CCC(=O)NCc1ccc(/C=C/C(=O)NC(c2ccc(F)c(C(F)(F)F)c2)C(F)(F)F)cc1C(F)(F)F` (stereo not drawn) [Ia-272], the efficacy in % in data set [1] (application rate 100 g/ha) is 100%. Further, the logP entry in data set [2] (setting [3]) was “HPLC-MS: logP = 3.61; mass”.

In data set [1] (application rate 500 g/ha), `N#Cc1ccc2[nH]c(C(=O)NC(c3cccc(C(F)(F)F)c3)C(F)(F)F)cc2c1` (stereo not drawn) [Ic-4] showed an efficacy in % of 83%. In data set [2] (setting [4]), the logP result is reported as “HPLC-MS: logP = 3.48; mass”.

As for `O=C(/C=C/c1ccc2c(c1)CCC2NC(=O)CC1CC1)NC(c1cccc(C(F)(F)F)c1)C(F)(F)F` (stereo not drawn) [Ie-2], the efficacy in % in data set [1] (application rate 100 g/ha) was 100%. The logP result in data set [2] (setting [4]) is recorded as “HPLC-MS: logP = 3.54; mass”.

In data set [1] (application rate 100 g/ha), `CCC(=O)NC(C)c1ccc(/C=C/C(=O)NC(c2ccc(F)c(Cl)c2)C(F)(F)F)cc1F` (stereo not drawn) [Ia-274] yielded an efficacy in % of 100%. Besides, in data set [2] (setting [3]), the logP result was “HPLC-MS: logP = 3.23; mass”.

As to `O=C(/C=C/c1ccc(C(=O)Nc2cnc(Br)cn2)c(C(F)(F)F)c1)NC(c1cccc(C(F)(F)F)c1)C(F)(F)F` (stereo not drawn) [Ia-226], in data set [1] (application rate 100 g/ha), the efficacy in % turned out to be 100%. Further, the logP entry in data set [2] (HPLC-MS) is “HPLC-MS: logP = 4.15; mass”.

In data set [1] (application rate 100 g/ha), `O=C(/C=C/c1ccc(C(=O)Nc2ccc(F)cn2)c(C(F)(F)F)c1)NC(c1cccc(C(F)(F)F)c1)C(F)(F)F` (racemic) [Ia-210] registered an efficacy in % of 100%. In addition, the logP result in data set [2] (HPLC-MS) is listed as “HPLC-MS: logP = 3.93; mass”.

In the case of `O=C(/C=C/c1ccc(-n2cncn2)c(Cl)c1)NC(c1ccc(F)c(Cl)c1)C(F)(F)F` (racemic) [Ia-209], in data set [1] (application rate 100 g/ha), the efficacy in % is 83%. Also, the logP result in data set [2] (HPLC-MS) was “HPLC-MS: logP = 3.15; mass”.

For the compound `O=C(/C=C/c1ccc(C(=O)Nc2ccc(F)cn2)c(Br)c1)NC(c1cccc(C(F)(F)F)c1)C(F)(F)F` (racemic) [Ia-212], in data set [1] (application rate 100 g/ha), the efficacy in % is reported as 100%. For the same compound, in data set [2] (HPLC-MS), the logP result is given as “HPLC-MS: logP = 3.87; mass”.

Turning to `N#Cc1ccc(NC(=O)c2ccc(/C=C/C(=O)NC(c3cccc(C(F)(F)F)c3)C(F)(F)F)cc2C(F)(F)F)nc1` (racemic) [Ia-211], in data set [1] (application rate 100 g/ha), the efficacy in % is listed as 100%. Further, in data set [2] (HPLC-MS), the logP entry is on record as “HPLC-MS: logP = 3.82; mass”.

On to `C#CC(C)(C)NC(=O)c1ccc(/C=C/C(=O)NC(c2cccc(C(F)(F)F)c2)C(F)(F)F)cc1Cl` (racemic) [Ia-196], for which, in data set [1] (application rate 100 g/ha), the efficacy in % was 83%. The logP entry in data set [2] (HPLC-MS) is “HPLC-MS: logP = 3.64; mass”.

Consider `C=CCn1c(C(=O)NC(c2cccc(C(F)(F)F)c2)C(F)(F)F)cc2cc(C(=O)NC3CC3)c(Cl)cc21` (racemic) [Ic-29], for which, in data set [1] (application rate 100 g/ha), the efficacy in % is on record as 100%. For the same compound, in data set [2] (setting [4]), the logP entry is recorded as “HPLC-MS: logP = 3.86; mass”.

In data set [1] (application rate 100 g/ha), `CC(C)C(=O)N(Cc1ccccn1)Cc1ccc(/C=C/C(=O)NC(c2cccc(C(F)(F)F)c2)C(F)(F)F)cc1F` (stereo not drawn) [Ia-253] gave an efficacy in % of 100%. Besides, in data set [2] (HPLC-MS), the logP result was “HPLC-MS: logP = 3.37; mass”.

The record behind these values is US8889878B2, “Haloalky-substituted amides as insecticides and acaricides” (Bayer CropScience AG, priority 2009, dated 2014).
